Data: paper PMC11295495 (Neuropharmacology, 2023)
Where two headings read alike, the source gives them in different places.

Key:
a9a10 nAChR [1] = molecular target: T1, a9a10 nAChR (Homo sapiens, UniProt Q9GZZ6+Q9UGM1); assay: two-electrode voltage-clamp in Xenopus oocytes, inhibition of […] ACh responses; format: cell-based
a9a10 nAChR [2] = molecular target: T1, a9a10 nAChR; assay: as above; format: cell-based; remark: listed apart in the source
a7 nAChR = a7 nAChR (Homo sapiens, UniProt P36544); assay: cell-based
a9 nAChR = a9 nAChR (Homo sapiens, UniProt Q9UGM1); assay: two-electrode voltage-clamp in Xenopus oocytes, inhibition of […] ACh responses; format: cell-based
a9 nAChR, sequence (Q9UGM1 23-479): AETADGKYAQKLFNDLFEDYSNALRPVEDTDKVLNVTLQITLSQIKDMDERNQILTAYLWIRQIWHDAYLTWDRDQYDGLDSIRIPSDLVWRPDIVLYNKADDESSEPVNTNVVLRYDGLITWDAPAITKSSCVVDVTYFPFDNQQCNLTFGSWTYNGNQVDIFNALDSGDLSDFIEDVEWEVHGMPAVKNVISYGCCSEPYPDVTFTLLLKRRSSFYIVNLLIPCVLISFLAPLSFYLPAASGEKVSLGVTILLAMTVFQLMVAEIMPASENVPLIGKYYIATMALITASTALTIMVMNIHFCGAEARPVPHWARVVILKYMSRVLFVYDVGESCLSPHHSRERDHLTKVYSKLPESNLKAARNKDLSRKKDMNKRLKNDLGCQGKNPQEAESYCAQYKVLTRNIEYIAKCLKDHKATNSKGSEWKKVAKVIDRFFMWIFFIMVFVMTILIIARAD

T1 sequence (Q9UGM1 23-479): as above
T1 sequence (Q9GZZ6 25-450): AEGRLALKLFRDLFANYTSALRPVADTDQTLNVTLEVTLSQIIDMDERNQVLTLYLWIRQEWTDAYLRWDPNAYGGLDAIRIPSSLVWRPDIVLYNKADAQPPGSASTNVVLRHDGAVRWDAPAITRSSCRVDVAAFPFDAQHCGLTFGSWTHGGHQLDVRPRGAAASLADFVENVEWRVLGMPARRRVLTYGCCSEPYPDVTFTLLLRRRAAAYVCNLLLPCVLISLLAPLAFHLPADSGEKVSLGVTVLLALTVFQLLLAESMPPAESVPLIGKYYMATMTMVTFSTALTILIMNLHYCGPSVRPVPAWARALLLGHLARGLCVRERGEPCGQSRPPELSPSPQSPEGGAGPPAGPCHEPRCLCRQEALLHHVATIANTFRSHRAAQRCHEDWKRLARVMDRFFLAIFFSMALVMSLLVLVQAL
a7 nAChR, sequence (P36544 23-502): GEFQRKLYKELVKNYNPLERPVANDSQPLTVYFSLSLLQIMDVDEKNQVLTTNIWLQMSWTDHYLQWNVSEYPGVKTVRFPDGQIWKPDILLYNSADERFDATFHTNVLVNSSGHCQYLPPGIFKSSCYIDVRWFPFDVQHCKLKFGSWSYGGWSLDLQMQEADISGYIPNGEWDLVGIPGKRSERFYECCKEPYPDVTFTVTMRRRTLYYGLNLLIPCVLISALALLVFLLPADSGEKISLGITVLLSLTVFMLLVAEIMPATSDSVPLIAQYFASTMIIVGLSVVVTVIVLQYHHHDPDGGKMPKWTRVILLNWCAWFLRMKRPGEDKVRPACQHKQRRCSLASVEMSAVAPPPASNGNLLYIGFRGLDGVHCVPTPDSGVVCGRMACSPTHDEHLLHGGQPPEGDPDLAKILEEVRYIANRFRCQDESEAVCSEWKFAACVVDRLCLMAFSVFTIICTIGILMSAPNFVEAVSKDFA

SMILES | IC50 (a9a10 nAChR [1]) | IC50 (a9a10 nAChR [2]) | IC50 (a7 nAChR) | IC50 (a9 nAChR)
CC[N+]1(CC)CCN(c2cccc(C#N)c2)CC1 [mCN-diEPP, 4-(3-cyanophenyl)-1,1-diethylpiperazin-1-ium] | 17100 ± 1540 nM |  |  | 
CCN1C[C@]2(COC(=O)c3ccccc3N3C(=O)C[C@H](C)C3=O)CC[C@H](OC)[C@@]34[C@@H]5C[C@H]6[C@H](OC)[C@@H]5[C@](O)(C[C@@H]6OC)[C@@](O)([C@@H](OC)[C@H]23)[C@@H]14 [methyllycaconitine] |  | 240 ± 130 nM | 120 ± 50 nM | 190 ± 20 nM
CN1CCC[C@H]1c1cccnc1 [nicotine] | 437000 ± 73000 nM |  |  | 
